Results reported in US20120208776A1 (priority 2002, published 2012).
pIC50: −log10 of the molar value. Several values for one entry are separate records, joined by “and”; a condition that tells them apart may be missing. Equal values may be shown once. Read-outs that look alike come from different tables or passages of the source. Marks after values point to notes of the source that are not given here.

What was measured:
[1] = test system: cyclin D1 mRNA in MCF7 cells; assay: RT-PCR of mRNA; type: cell-based, human
Description: FIG. 13 illustrates the effects of actein on cyclin D1 mRNA in MCF7 cells (RT-PCR). MCF7 cells were treated with DMSO or actein for 3, 10, or 24 h. RNA was isolated and analyzed by RT-PCR, using primers for cyclin D1 and actin (control). The staining intensities of the visualized blots were quantified using NIH image software. The relative band intensities were determined by comparing treated samples with untreated controls. These values were then normalized (fold), using β-actin as an internal control.

[2] = test system: HepG2 p53 positive human liver cancer cells; assay: MTT proliferation assay; type: cell-based
[3] = test system: rat liver gene expression
MCF7 cells [4] = assay: Cell-cycle analysis by DNA flow cytometry; type: cell-based, human
Description: Synchrony: To synchronize the cells, 3×10^5 cells were plated onto 10 cm dishes and grown for 2 days in DMEM supplemented with 10% fetal bovine serum.
After incubation for 1-3 days, the supernatant was collected, and the cells were trypsinized, collected, and washed with phosphate buffered saline (PBS) containing 5% FBS. Cell pellets were re-suspended in 1 ml of PBS plus 5% FBS. Thereafter, 5 ml of 70% ethanol were added drop-wise, while vortexing the tube, and the mixture was stored at 4° C. Cells were centrifuged, washed with PBS plus 5% FBS, and re-suspended in 400 μl of propidium iodide (0.1 mg/ml) (Sigma Chemical Co.). 400 μl (2 mg/ml) of RNase (Sigma Chemical Co.) were added, and the cells were incubated in the dark at room temperature for 30 min.

[5] = Lipid analysis of rat liver; type: in vivo, Sprague-Dawley rats; conditions: actein 35.7 mg/kg; 24 hours
Description: (§1) Lipid analysis: Hepatic lipids were extracted by homogenization of the liver followed by addition of choloroform:methanol (2:1). After vortex and centrifugation for 10 min, the organic phase was collected and dried under nitrogen. The dried lipids were dissolved in 1% Triton X-100 in water and sonicated. Extracted hepatic lipids and plasma lipids were measured by cholesterol and triglyceride enzymatic assay kits from Infinity (Louisville, Colo.) according to the manufacturer's instruction. Free fatty acids were measured by Enzymatic assay using NEFA C kit from Wako Chemicals (Richmond, Va.). Tissue lipids were normalized by protein concentration.
as §1, with “Hepatic” for “Lipid analysis: Hepatic”, “liver from the 24 h group,” for “liver”, “vortexing” for “vortex”, “Colo.),” for “Colo.)”, “instructions.” for “instruction.”

MCF7 cells [6] = assay: Cell proliferation, cell count (Coulter Counter); type: cell-based, human
MDA-MB-453 cells = type: cell-based, human
Description: RNA was isolated as previously described. […] Total RNA (8 μg) was reverse transcribed with T7-(dT)24 primer and Super Script III reverse transcriptase (Invitrogen). After purification, cDNA was in vitro transcribed into biotin labeled antisense cRNA with the BioArray high yield RNA transcript labeling kit (Enzo Life Sciences; Farmingdale, N.Y.), according to a modified Affymetrix protocol. cRNA (15 μg) was fragmented into the final probe and hybridized to human U133A 2.0 gene chips (Affymetrix, Inc.; Santa Clara, Calif.), comprised of more than 22,000 probe sets. The Institute for Cancer Genetics Core Facility at the Columbia Genome Center performed the hybridization.
Two or three replicates of each microarray were performed to determine intrasample variation. To bolster the robustness of the analysis, the effects of 4 doses for 2 time periods were examined.
All analyses were performed using the AffyLimmaGUI package in the open-source Bioconductor suite, as previously described. […] Variability is reported in terms of a p-value representing the probability that differences between treated and untreated could occur by chance. The p-value takes into account both the variability within groups (in this case the groups are treated and control) and the variability between groups.

[7] = rat liver, actein 35.7 mg/kg, 6 hours, vs control
[8] = rat liver, actein 35.7 mg/kg, 24 hours, vs control

CC(=O)O[C@@H]1C[C@@]23C[C@@]24CC[C@H](O[C@@H]2OC[C@@H](O)[C@H](O)[C@H]2O)C(C)(C)[C@@H]4CC[C@H]3[C@]2(C)C[C@@H]3O[C@]4(C[C@@H](C)[C@@H]3[C@@]12C)O[C@H](O)[C@@]1(C)O[C@@H]41 [actein]
cyclin D1 mRNA (RT-PCR) ([1]; 3 h, 20 μg/ml): 0.91 fold
cyclin D1 mRNA (RT-PCR) ([1]; 3 h, 40 μg/ml): 0.94 fold
cyclin D1 mRNA (RT-PCR) ([1]; 10 h, 20 μg/ml): 1.1 fold
cyclin D1 mRNA (RT-PCR) ([1]; 10 h, 40 μg/ml): 0.93 fold
cyclin D1 mRNA (RT-PCR) ([1]; 24 h, 20 μg/ml): 0.84 fold
cyclin D1 mRNA (RT-PCR) ([1]; 24 h, 40 μg/ml): 0.66 fold
IC50 [2]: 27 µg/mL and 40 µM
ATP synthase expression, fold-change (log) ([3]; actein 35.7 mg/kg, 6 hours): −0.05
number of genes with significant change (p<0.05) in transcription level ([3]; actein 35.7 mg/kg, 6 hours): 297
erythropoietin expression, fold-change (log) ([3]; actein 35.7 mg/kg, 6 hours, rat liver): −0.22
C4BP expression, fold-change (log) ([3]; actein 35.7 mg/kg, 24 hours): 0.17
CXCL1 expression, fold-change (log) ([3]; actein 35.7 mg/kg, 24 hours): 0.44
FDPS expression, fold-change (log) ([3]; actein 35.7 mg/kg, 24 hours): 0.34
HMGCS expression, fold-change (log) ([3]; actein 35.7 mg/kg, 24 hours): 0.36
IPP expression, fold-change (log) ([3]; actein 35.7 mg/kg, 24 hours): 0.80
S100A9 expression, fold-change (log) ([3]; actein 35.7 mg/kg, 24 hours): 0.79
SCD1 expression, fold-change (log) ([3]; actein 35.7 mg/kg, 24 hours): −1.28
number of genes with significant change (p<0.05) in transcription level ([3]; actein 35.7 mg/kg, 24 hours): 1335
PPS, Hepatic inflammatory infiltrate, centrilobular signature ([3]; female, Sprague-Dawley, rat, in vivo, 6 h): 0.58
PPS, Hepatic inflammatory infiltrate, early gene expression signature ([3]; female, Sprague-Dawley, rat, in vivo, 24 h): 0.56
Fold-change (log) ATP5I (1387019_at) [3, 7]: −0.05*
Fold-change (log) EPO (1387308_at) [3, 7]: −0.22^†
Fold-change (log) ACOX1 (1367680_at) [3, 8]: −0.17*
Fold-change (log) C4BP, Complement component 4 binding protein, alpha (1369764_at) [3, 8]: 0.09*
Fold-change (log) C4BP, Complement component 4 binding protein, beta (1368695_at) [3, 8]: 0.17*
Fold-change (log) C5 (1383425_at) [3, 8]: 0.18*
Fold-change (log) CD44 (1387952_a_at) [3, 8]: 0.08*
Fold-change (log) CXCL1 (1387316_at) [3, 8]: 0.44*
Fold-change (log) FDPS (1367667_at) [3, 8]: 0.34*
Fold-change (log) HMGCS1 (1367932_at) [3, 8]: 0.36^†
Fold-change (log) IPP (1388872_at) [3, 8]: 0.80*
Fold-change (log) MG3PDH (1387670_at) [3, 8]: −0.38*
Fold-change (log) S100A9 (1387125_at) [3, 8]: 0.79*
Fold-change (log) SAP (1367804_at) [3, 8]: −0.04*
Fold-change (log) SCD1 (1370355_at) [3, 8]: −1.28*
cells in G1 (MCF7 cells [4]; 10 μg/ml, 24 h): 75%
cells in G1 (MCF7 cells [4]; 10 μg/ml, 48 h): 77%
cells in G1 (MCF7 cells [4]; 20 μg/ml, 24 h): 77%
apoptosis (sub G1 peak) (MCF7 cells [4]; 20 μg/ml, 48 h): approximately 1.4%
cells in G1 (MCF7 cells [4]; 20 μg/ml, 48 h): 87%
apoptosis (sub G1 peak) (MCF7 cells [4]; 20 μg/ml, 72 h): 3.6%
cells in G1 (MCF7 cells [4]; 30 μg/ml, 48 h): 82%
cells in G2/M (MCF7 cells [4]; 30 μg/ml, 48 h): 12%
cells in G1 (MCF7 cells [4]; 40 μg/ml, 24 h): 74%
cells in G1 (MCF7 cells [4]; 40 μg/ml, 48 h): 79%
cells in G1 (MCF7 cells [4]; 60 μg/ml, 48 h): 77%
cells in G2/M (MCF7 cells [4]; 60 μg/ml, 48 h): 18%
cholesterol level in liver vs controls [5]: 0.6 fold
free fatty acid level in liver vs controls [5]: 0.6 fold
triglyceride content of liver vs controls [5]: no change
IC50 (MCF7 cells [6]; Homo sapiens, MCF7 cells, 96 h, read-out: IC50): 14 µg/mL
pIC50 (MCF7 cells [6]; Homo sapiens, MCF7 cells, 96 h, value in parentheses, read-out: IC50): 4.68
cells alive (MCF7 cells [6]; MCF7, 20 μg/ml, 96 h): 38.0%±3.0
potency relative to 23-epi-26-deoxyactein or cimifugoside (MCF7 cells [6]; MCF7 growth inhibition): approximately 1.5 fold
potency relative to cimiracemoside A (MCF7 cells [6]; MCF7 growth inhibition): approximately 3 times

C[C@H]1O[C@@H](O[C@H]2[C@@H](O)C[C@H](O[C@H]3[C@@H](O)C[C@H](O[C@H]4CC[C@@]5(C)[C@H](CC[C@@H]6[C@@H]5CC[C@]5(C)[C@@H](C7=CC(=O)OC7)CC[C@]65O)C4)O[C@@H]3C)O[C@@H]2C)C[C@H](O)[C@@H]1O [digitoxin]
number of genes with significantly altered expression (MDA-MB-453 cells; digitoxin 20 ng/ml, 24 hours): 22
number of genes altered (MDA-MB-453 cells; digitoxin 0.1 μg/mL, 6 hours): 2
number of genes altered (MDA-MB-453 cells; digitoxin 0.1 μg/mL, 24 hours): 8
number of genes altered (MDA-MB-453 cells; digitoxin 0.2 μg/mL, 6 hours): 6
number of genes altered (MDA-MB-453 cells; digitoxin 0.2 μg/mL, 24 hours): 88
number of genes altered (MDA-MB-453 cells; digitoxin 1 μg/mL, 6 hours): 87
number of genes altered (MDA-MB-453 cells; digitoxin 1 μg/mL, 24 hours): 1491
